Assay results: publication PMC6010053, “The hop-derived compounds xanthohumol, isoxanthohumol and 8-prenylnaringenin are tight-binding inhibitors of human aldo-keto reductases 1B1 and 1B10” (Journal of Enzyme Inhibition and Medicinal Chemistry, 2018)

Tests used:
AKR1B10 [1] = molecular target: T1, AKR1B10 (Homo sapiens, UniProt O60218); assay: AKR1B10-catalysed farnesal reduction (physiological substrate); assay type: biochemical; conditions: for Ki / IC50: farnesal at KM 5 μM, mean ± SD; for Ki: Morrison equation; for IC50: at least three experiments; for mode of inhibition: with respect to the substrate farnesal, IC50 at five substrate concentrations
T1 construct: 6xHis; made in house; host or cells: E. coli BL21 (DE3)
T1 sequence (O60218 whole entry): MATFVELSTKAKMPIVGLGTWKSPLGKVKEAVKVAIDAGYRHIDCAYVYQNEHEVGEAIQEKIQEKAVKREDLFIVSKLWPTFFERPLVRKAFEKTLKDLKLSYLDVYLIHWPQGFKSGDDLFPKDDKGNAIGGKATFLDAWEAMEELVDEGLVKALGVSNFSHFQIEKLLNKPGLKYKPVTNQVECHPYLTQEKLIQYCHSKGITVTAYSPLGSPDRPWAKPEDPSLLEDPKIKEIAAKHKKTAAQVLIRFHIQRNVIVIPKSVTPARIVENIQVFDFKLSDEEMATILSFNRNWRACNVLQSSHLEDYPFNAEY
Protocol: (§1) Catalytic properties were determined by measuring the decrease in absorbance at 340 nm at 37 °C (Cary 100 scan photometer, Varian, Pal Alto, CA, USA). A reaction mixture without inhibitor consisted of different concentrations of substrate (see Table 1 for details), 200 μM NADPH, 0.1 M NaH2PO4 buffer (pH 7.4) and an appropriate amount of enzyme in a total assay volume of 0.8 ml. Final enzyme concentrations in the assay ranged from 583 nM (AKR1B10) to 712 nM (AKR1B1). For inhibitor selectivity studies on AKR1A1, AKR1B1 and AKR1B10 stock solutions of the inhibitors XN, XI and 8-PN were prepared in dimethyl sulfoxide (DMSO). The final concentration of DMSO in the assay was ≤0.5%. Activity measurements were started without pre-incubation by adding an appropriate amount of enzyme. When collecting data for dose–response curves, initial velocities of the glyceraldehyde reduction (concentration at KM; enzyme specific) in the presence of inhibitors were assayed as described above. The percentage of inhibition was calculated considering the activity in the absence of inhibitor to be 100%.
(§2) Initially, the half maximal inhibitory concentrations (IC50 values) were determined for each inhibitor in the presence of each enzyme, using the shared substrate glyceraldehyde (set to their specific Km; 3.6 mM, 50 µM and 4 mM for AKR1A1, AKR1B1 and AKR1B10, respectively) to assess specificity among the structurally similar members of the AKR-superfamily. For IC50 determination, experimental data were normalised and fitted to a sigmoidal curve as implemented in GraphPad6 (GraphPad Software Inc., La Jolla, CA, USA). Whenever tight-binding inhibition was observed, the inhibition constant Ki was determined by fitting inhibition data to the Morrison equation as implemented in GraphPad Prism6 (GraphPad Software Inc., La Jolla, CA, USA)[65], using non-linear regression.
(§3) In order to verify the inhibitory potency, enzyme-specific physiological substrates for AKR1B1 (glucose, KM = 32 mM) and AKR1B10 (farnesal; KM = 5 µM) were used to determine inhibition parameters. Enzyme inhibition parameters were assayed as described above. The inhibition mechanism of each compound for the respective enzymes was analysed by plotting IC50 values at different substrate concentrations (at least five inhibitor and substrate concentrations)[65]^,[66]. All data obtained were plotted and analysed using GraphPad Prism6 (GraphPad Software Inc., La Jolla, CA, USA).

AKR1B1 [2] = molecular target: T2, AKR1B1 (Homo sapiens, UniProt P15121); assay: AKR1B1-catalysed glucose reduction (physiological substrate); assay type: biochemical; conditions: for Ki / IC50: glucose at KM 32 mM, mean ± SD; for Ki: Morrison equation; for IC50: at least three experiments; for mode of inhibition: with respect to the substrate glucose, IC50 at five substrate concentrations
T2 construct: 6xHis; made in house; host or cells: E. coli BL21 (DE3)
Protocol: as §1, §2, §3

AKR1A1 = molecular target: T3, AKR1A1 (Homo sapiens, UniProt P14550); assay: AKR1A1-catalysed glyceraldehyde reduction (inhibitor selectivity); assay type: biochemical
T3 construct: 6xHis; made in house; host or cells: E. coli BL21 (DE3)
T3 sequence (P14550 1-325): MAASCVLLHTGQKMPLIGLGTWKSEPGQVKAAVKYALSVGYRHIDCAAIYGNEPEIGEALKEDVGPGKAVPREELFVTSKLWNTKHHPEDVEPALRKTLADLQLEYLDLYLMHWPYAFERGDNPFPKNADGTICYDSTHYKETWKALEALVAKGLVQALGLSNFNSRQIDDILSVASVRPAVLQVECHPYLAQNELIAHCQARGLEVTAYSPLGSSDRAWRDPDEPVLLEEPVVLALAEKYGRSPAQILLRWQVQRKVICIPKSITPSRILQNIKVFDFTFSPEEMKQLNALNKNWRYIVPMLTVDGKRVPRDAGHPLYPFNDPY
Protocol: (§4) The recombinant enzymes AKR1A1, AKR1B1 and AKR1B10 were prepared in an Escherichia coli expression system according to previously published methods: AKR1A1 was a gentle gift from Prof. Dr. Vladimir Wsol[63]; AKR1B1 was a friendly gift from Dr. Nina Kassner; information about production and purification of AKR1B10 has been published before. Genetic information on the specific inserts of all obtained plasmids was verified by sequencing (MWG Eurofins). The plasmids were then transformed into E. coli BL21 (DE3) cells. For over-expression of 6 × His-tagged enzymes, a 400-ml culture (containing the appropriate antibiotic; plasmid dependent) was grown to an optical density of 0.6 at 600 nm at 37 °C. Protein over-expression was induced by adding isopropyl-1-thio-galactopyranoside (IPTG) to the culture medium (final concentration of 1 mM). After 3 h, cells were harvested by centrifugation (6000 g, 15 min) and re-suspended in 20 ml PBS-I buffer (20 mM NaH2PO4, 500 mM NaCl, 10 mM imidazole, pH 7.4). Cell disruption was performed by ultrasonication with cooling on ice, to avoid heating. The sample was subsequently centrifuged at 100,000 g at 4 °C for 1 h. The obtained supernatants, containing the target protein were purified using Ni-affinity chromatography on an ÄKTA-Purifier System (Amersham Pharmacia Biotech, Uppsala, Sweden). Purification progress was monitored by SDS-PAGE of the obtained fractions (not shown). Enzyme concentrations were determined using a Qubit 2.0 fluorometric quantitation system (Life Technologies, Carlsbad, CA, USA) according to the manufacturer’s instructions.
Catalytic properties were determined by measuring the decrease in absorbance at 340 nm at 37 °C (Cary 100 scan photometer, Varian, Pal Alto, CA, USA). A reaction mixture without inhibitor consisted of different concentrations of substrate (see Table 1 for details), 200 μM NADPH, 0.1 M NaH2PO4 buffer (pH 7.4) and an appropriate amount of enzyme in a total assay volume of 0.8 ml. […] The percentage of inhibition was calculated considering the activity in the absence of inhibitor to be 100%. […]

AKR1B10 [3] = molecular target: T1, AKR1B10; assay: AKR1B10-catalysed glyceraldehyde (GA) reduction, NADPH absorbance decrease at 340 nm; assay type: biochemical; conditions: GA at KM 4 mM, mean ± SD; for IC50: 200 μM NADPH, pH 7.4, 37 °C, at least three experiments; for Ki: Morrison equation for tight-binding inhibitors
Protocol: as §4, §1, §2

AKR1B1 [4] = molecular target: T2, AKR1B1; assay: AKR1B1-catalysed glyceraldehyde (GA) reduction, NADPH absorbance decrease at 340 nm; assay type: biochemical; conditions: for IC50 / Ki: GA at KM 50 μM, mean ± SD; for IC50: 200 μM NADPH, pH 7.4, 37 °C, at least three experiments; for Ki: Morrison equation for tight-binding inhibitors; for mode of inhibition with respect to the co-factor binding site for NADPH: glyceraldehyde reduction, IC50 as a function of NADPH concentration
Protocol: as §4
as §1, with “A reaction mixture without inhibitor consisted of different concentrations of substrate (see Table 1 for details), 200 μM NADPH, 0.1 M NaH2PO4 buffer (pH 7.4) and an appropriate amount of enzyme in a total assay volume of 0.8 ml.” left out
as §2

AKR1B1 [5] = test system: AKR1B1; parameters: method as in earlier work; conditions: glyceraldehyde as substrate; cited from earlier work
AKR1B10 [6] = test system: AKR1B10; parameters: method as in PMID 26844556, PMID 27359042, PMID 28003428, PMID 26968129, PMID 21561086; conditions: selective inhibitors identified so far; cited from earlier work

Row | Ki (AKR1B10 [1]) [µM] | IC50 (AKR1B10 [1]) [µM] | mode of inhibition (AKR1B10 [1]) | Ki (AKR1B1 [2]) [µM] | IC50 (AKR1B1 [2]) [µM] | mode of inhibition (AKR1B1 [2]) | effect on the activity of AKR1A1 (AKR1A1) | IC50 (AKR1B10 [3]) [µM] | Ki (AKR1B10 [3]) [µM] | IC50 (AKR1B1 [4]) [µM] | Ki (AKR1B1 [4]) [µM] | mode of inhibition with respect to the co-factor binding site for NADPH (AKR1B1 [4]) | inhibitory potency, times greater as compared to that of 6-PN (AKR1B1 [4]; ratio of AKR1B1 IC50 values, glyceraldehyde as substrate) [times] | SMILES | IC50 (AKR1B1 [5]) [µM] | IC50 (AKR1B10 [6]) [µM]
1 | 20.1 ± 3.73 | 41.4 ± 6.86 | uncompetitive | 15.1 ± 1.65 | 29.2 ± 2.3 | uncompetitive | not affecting | 6.56 ± 0.69 | 4.56 ± 0.98 | 9.11 ± 1.02 | 5.29 ± 0.95 | non-competitive | – | COc1cc(O)c(CC=C(C)C)c(O)c1C(=O)/C=C/c1ccc(O)cc1 [XN, xanthohumol] | – | –
2 | 1.95 ± 0.12 | 3.96 ± 0.17 | uncompetitive | 0.71 ± 0.09 | 1.87 ± 0.09 | uncompetitive | not affecting | 0.99 ± 0.04 | 0.52 ± 0.05 | 0.81 ± 0.03 | 0.3 ± 0.03 | non-competitive | 7.6 | CC(C)=CCc1c(O)cc(O)c2c1O[C@H](c1ccc(O)cc1)CC2=O [8-PN, 8-prenylnaringenin] | – | –
3 | – | – | – | – | – | – | – | – | – | – | – | – | – | CC(C)=CCc1c(O)cc2c(c1O)C(=O)C[C@@H](c1ccc(O)cc1)O2 [6-PN, 6-prenylnaringenin] | 6.2 | –
4 | – | – | – | – | – | – | – | – | – | – | – | – | – | C[C@@]12CCC[C@H]1[C@@H]1C[C@@H](O)[C@@]3(O)C[C@@H](O)CC[C@]3(CO)[C@H]1CC2 [Androst-3β,5α,6β,19-tetrol] | – | 0.86
5 | – | – | – | – | – | – | – | – | – | – | – | – | – | CC1(C)CC[C@]2(C(=O)O)CC[C@]3(C)C(=CC[C@@H]4[C@@]5(C)CC[C@H](O)C(C)(C)[C@@H]5CC[C@]43C)[C@@H]2C1 [oleanolic acid] | – | 0.09
6 | 2.25 ± 0.24 | 4.24 ± 0.23 | uncompetitive | 0.34 ± 0.06 | 0.88 ± 0.05 | uncompetitive | not affecting | 1.09 ± 0.06 | 0.52 ± 0.05 | 0.57 ± 0.02 | 0.17 ± 0.02 | uncompetitive | – | COc1cc(O)c(CC=C(C)C)c2c1C(=O)CC(c1ccc(O)cc1)O2 (stereo not shown) [IX, isoxanthohumol] | – | –
